Laboratory results published in patent publication US11529344B2, “EZH2 inhibitor combination therapies” (Pfizer Inc., priority 2017, dated 2022).
pIC50: −log10 of the molar value.

Assays:
Type in all cases: cell-based
DMS114 SCLC cells = experiment: Cell growth inhibition assay for DMS114 SCLC cells; details: Homo sapiens, DMS-114, 17-21 days of treatment, mean of 6 biological replicates, read-out: Proliferation IC50 ± SD (nM) (n)
Experimental: (§1) COR-L88 (92031917) cells were purchased from ECACC. […] No. 1565565).
DMS114 SCLC cells were plated in complete cell culture medium described above (1 mL/well) in a 12-well clear, flat bottom polystyrene tissue culture plate (Falcon, Cat. 353225) at a density of 10,000 cells/well. Plates were incubated overnight for 16 hours at 37° C. and 5% CO2. Cells were then treated for 3 days with a 10-point, 3-fold serial dilution of Compound 1 starting at a high concentration of 3 μM. After 3 days, cells from each individual dose treatment were dissociated with Trypsin-EDTA (0.25%) (Gibco/Life Technologies Cat. 25200-056), resuspended in fresh medium, and counted using Vi-Cell cell counter and cell viability analyzer (Beckman Coulter, cat. 383556). […] Plates were then read in an Infinite M200 Pro microplate reader (Tecan Cat. 396235) using a fluorescence excitation wavelength of 540 nm to 570 nm (peak excitation is 570 nm) and emission at 580 nm to 610 nm (peak emission is 585 nm). IC50 values were calculated using nonlinear regression dose response curve fit in GraphPad Prism version 7.02.
The activity of Compound 1 in inhibiting cell proliferation of EZH2-WT DMS114 SCLC cells was also assessed using the cell proliferation assay for DMS114 SCLC cells described above. […]

H841 SCLC cells = experiment: Cell growth inhibition assay, H841 SCLC cells; details: NCI-H841, 504 h; H841 cell line, 21 days of treatment; read-out: inhibition of cell proliferation, mean IC50
Experimental: as §1
(§2) H841, H446 and H69 cells were plated in their recommended complete culture medium described above (1 mL/well) in triplicate 12 well plates for each cell line at a density of 100,000 cells per well. Plates were incubated overnight at 37° C. and 5% CO2. Compound 1 stock was prepared at 50 mM in DMSO and was dispensed to several single-use aliquots and stored at −20° C. To prepare the compound plate, Compound 1 was diluted to 3 mM in DMSO and then 3-fold serial dilution were made in DMSO (10 doses in total). […] On Day 21, cell morphology was observed under microscope and any morphology changes upon compound treatment were recorded. […] Cell viability was measured using according to manufacturer's instructions.
(§3) Based on the strong activity observed with Compound 1 in DMS114 cells (see example 1 above), the antiproliferative activity of Compound 1 was also tested in 3 additional SCLC cell lines, namely H841, H446 and H69 using the cell proliferation assay described above. Each cell line was treated with different concentrations of Compound 1 using a 10-point dose curve (1:3 dilution in DMSO) with 3 μM to 0.1 nM for 21 days and then assessed for cell viability. […]

H446 SCLC cells = experiment: Cell growth inhibition assay, H446 SCLC cells; details: Homo sapiens, NCI-H446, 504 h; H446 cell line, 21 days of treatment; read-out: inhibition of cell proliferation, mean IC50
Experimental: as §1, §2, §3

H69 SCLC cells = experiment: Cell growth inhibition assay, H69 SCLC cells; details: Homo sapiens, NCI-H69, 504 h; H69 cell line, 21 days of treatment; read-out: inhibition of cell proliferation, mean IC50
Experimental: as §1, §2, §3

COc1cc(C)[nH]c(=O)c1CN1CCc2c(Cl)cc([C@H](OC)C3COC3)c(Cl)c2C1=O [Compound 1, 5,8-dichloro-2-[(4-methoxy-6-methyl-2-oxo-1,2-dihydro-pyridin-3-yl)methyl]-7-[(R)-methoxy(oxetan-3-yl)methyl]-3,4-dihydroisoquinolin-1(2H)-one]
IC50 (DMS114 SCLC cells): 18.8 nM
pIC50 (H841 SCLC cells): 7.14
pIC50 (H446 SCLC cells): 6.96
pIC50 (H69 SCLC cells): 6.65
